Laboratory results from publication PMC9570109, “Improved Trimethylangelicin Analogs for Cystic Fibrosis: Design, Synthesis and Preliminary Screening” (International Journal of Molecular Sciences, 2022).

Assays:
[1] = test system: Salmonella typhimurium mutant TA97A, TA98, TA100, and TA1535 strains; test: Ames test, overall result on all strains; type: cell-based; conditions: all concentrations, with and without S9 mix
Method: To investigate whether changes in the structure of TMA abolish the mutagenic effect observed with this class of compounds, the most promising TMA analogs were evaluated by the Ames test. Compounds 4-PhDMA and pANDMA were tested for genotoxicity evaluation using the histidine-requiring Salmonella typhimurium mutant TA97A, TA98, TA100, and TA1535 strains that allow checking frameshift mutation and base pair substitution, with and without metabolic activation induced by S9 Mix.
The number of spontaneous revertants is relatively constant, but it dramatically increases—generally in a dose-dependent way—when a mutagen is added to the plate. […]
The mutagenicity assay was performed for the test compounds following the plate incorporation method with the histidine-requiring Salmonella typhimurium mutant TA97A, TA98, TA100, and TA1535 strains purchased by Molecular Toxicology Inc. (Boone, NC, USA; moltox.com). […] The plates were incubated at 37 °C for 72 h and then his+ revertants were checked and counted using a Colony Counter 560 Suntex (Antibioticos, Italy). […] Statistical analysis: relative standard deviations were calculated using the statistical software STATISTICA 6.0 (StatSoft, Italia srl, Vigonza, Italy).

[2] = In vivo oral pharmacokinetics in mice; conditions: c57BL/6 male mice; for AUC 0-inf / CL/F / Cmax / Tmax / t1/2: 20 mg/kg gavage, in water; for oral bioavailability: water as vehicle
Method: The main pharmacokinetic parameters of 4-PhDMA, pANDMA, and pANDMA mesylate were evaluated in c57BL/6 male mice, using water as dispersing vehicle.
All experimental procedures involving animals were conducted in accordance with the 3R principle to minimize their pain and discomfort. […] For the PK analysis, C57Bl6 male mice (n = 3 per time point) were gavaged with selected compounds (20 mg/kg), suspended in water, or dissolved in SEDDS formulations, after an overnight fast. […] 8.0 software (GraphPad Software Inc., San Diego, CA, USA), when appropriate. If not otherwise stated, the PK data are expressed as mean ± SD. p < 0.05 was considered statistically significant.
The TMA analogs were extracted and analyzed from mouse plasma as already reported. Briefly, 100 µL of plasma were treated with 300 µL of cold acetonitrile spiked with 80 nM of internal standard (IS, 6,4′-dimethylangelicin), and then the samples were centrifuged for 10 min at 12,000× g (Hettich Mikro 120 Benchtop Centrifuge) and 25 °C. Ten microliters of the supernatant were injected into the UHPLC system.
The analytical column was a Kinetex 2.6 μm C18 Polar, 100 A, 100 × 2.1 mm (Phenomenex, Bologna, Italy), thermostated at 30 °C. The mobile phase components A and B were water and methanol, respectively, both containing 10 mM ammonium formate. The eluent flow rate was 0.25 mL/min. […] MS data were analyzed using the Mass Hunter Qualitative Analysis software (Agilent Technologies, Palo Alto, CA, USA).
Chromatographic peaks of the TMA analog were identified and integrated by considering the Extracted Ion Chromatogram (EIC) of the [M+H]^+ species selected with a window of 5 ppm and normalized by the IS. Quantification of TMA analogs was carried out by external calibration of normalized signals using a seven-point calibration curve obtained by spiking blank plasma with each TMA analog in the range of 20–3000 nM.

SMILES	genotoxic activity (Ames test) [1]	AUC 0-inf [2]	CL/F [2]	Cmax [2]	Tmax [2]	t1/2 [2]	oral bioavailability [2]	Cmax ([2]; 20 mg/kg)
Cc1cc2c(-c3ccccc3)cc(=O)oc2c2c(C)coc12 [4-PhDMA]	non-genotoxic	2.74736 ± 0.51361 µM·h	0.0014 ± 0.0014 mL/h/g	222 ± 184 nM	1.25 ± 1.06 h	21.13 ± 0.98 h	very low	
Cc1cc(=O)oc2c1cc(-c1ccc(N)cc1)c1occ(C)c12 [pANDMA]	non-genotoxic	2.4054 ± 0.2082 µM·h	0.0083 ± 0.0007 mL/h/g		0.5 ± 0 h	1.91 ± 0.71 h	very low	1520 ± 261 nM
